Experiment [1] concerns DKO (LDL-R−/−×ob/ob) mice. Conditions: mean ± SD. The protocol: Breeding and genotyping of LDL-receptor deficient, leptin-deficient ob/ob, and DKO (LDL-R^−/−×ob/ob) mice, on the C57BL/6J background, were performed as previously described (72, 73).
To convert from mg/dL to mM, we divided glucose by 18 (=molecular weight), triglycerides by 89 and total cholesterol by 39. […] To determine glucose tolerance, glucose was measured in samples obtained by tail bleeding before and 15, 30, 60, 120 and 240 minutes after intraperitoneal administration of glucose (20% glucose solution; 2 g/kg). Plasma adiponectin […] were measured with specific mouse ELISA (R&D Systems).

The test system of experiment [2] is Cox1. As to the kind of experiment: Cox1 gene expression in aorta of DKO mice (qPCR). Conditions: 12 weeks treatment, relative RNA expression, mean ± SD.
Protocol: (§1) Total RNA from monocytes, macrophages and vascular tissues was extracted with TRIzol reagent (Invitrogen) and purified on (mi)RNeasy Mini Kit columns (Qiagen). […] First-strand cDNA was generated from total RNA with the SuperScript VILO cDNA synthesis kit (Invitrogen). qPCR analysis was performed on a 7500 Fast Real-Time PCR system using Fast SYBRGreen master mix, according to the supplier protocols (Applied Biosystems). […] For each RNA and microRNA sample, the expression levels of the RNAs as described herein were compared and normalized to reference housekeeping RNAs or microRNAs. […] We compared them with non-treated DKO at 24 weeks. […] Food and water were available ad libitum. […] All mice were sacrificed by Nembutal overdose at the age of 24 weeks (72, 73).
Experiment [3] has as its system Tfam. As to the kind of experiment: Tfam gene expression in aorta of DKO mice (qPCR). Conditions: 12 weeks treatment, relative RNA expression, mean ± SD.
Protocol: as §1
Experiment [4] relates to Cox4i1. Nature of the experiment: Cox4i1 gene expression in aorta of DKO mice (qPCR). As to conditions: 12 weeks treatment, relative RNA expression, mean ± SD.
Protocol: as §1
Where [5] appears, read: DKO mice at 24 weeks, 12 weeks treatment in diet.

Marks after values point to notes of the source that are not given here.

Here are results for 2 compounds from patent publication US10704097B2, “Oxidative stress and cardiovascular disease events” (KATHOLIEKE UNIVERSITEIT LEUVEN, priority 2014, dated 2020).

Take `CN(CCOc1ccc(CC2SC(=O)NC2=O)cc1)c1ccccn1` (centres unmarked) [Rosiglitazone, rosiglitazone]: the Weight in experiment [1] (DKO mice at 24 weeks, 12 weeks treatment in diet (fenofibrate 50, rosiglitazone 10 mg/kg/day)) is given as 55 ± 3.6*^/$ g. Also, the Insulin in experiment [1] (DKO mice at 24 weeks, 12 weeks treatment in diet, fasting plasma) is given as 69 ± 42 ^ mU/L. Moreover, in experiment [1] (setting [5]), the “TG (triglyceride)” value was 192 ± 96 ^ mg/dl and the “Total C (cholesterol)” value was 700 ± 139*^/$$ mg/dl. The Glucose in experiment [1] (DKO mice at 24 weeks, 12 weeks treatment in diet, overnight fast) was 88 ± 18*^/$/£ mg/dl. Also, the “ADN (adiponectin)” value in experiment [1] (DKO mice at 24 weeks, 12 weeks treatment in diet, plasma) was 16 ± 2.3***^/£££ μg/ml. In experiment [1] (DKO mice, 12 weeks treatment, fasting insulin × fasting glucose / 22.5), the HOMA-IR is 16 ± 11 ^. Moreover, in experiment [2], the “Cox1 gene expression in aorta” value is 1.16 ± 0.40***^/$/£££. For the same compound, the “Tfam gene expression in aorta” value in experiment [3] was 1.57 ± 0.50***^/$/££. In addition, the “Cox4i1 gene expression in aorta” value in experiment [4] is on record as 2.20 ± 0.64***^/$$/££.

As for `CC(C)OC(=O)C(C)(C)Oc1ccc(C(=O)c2ccc(Cl)cc2)cc1` [Fenofibrate], the “AUC of IPGTT” value in experiment [1] (DKO mice, 12 weeks treatment, intraperitoneal glucose tolerance test, glucose 2 g/kg) is listed as 75 ± 15 ×10^3.
